Reference: patent US20100075334A1, “METHYLATION BIOMARKER FOR EARLY DETECTION OF GASTRIC CANCER” (priority 2007, published 2010)

Tested on: gastric cancer cell lines, SNU001, SNU601, and SNU668
Assay: Reactivation analysis of silenced genes by drug treatment (RT-PCR)
Assay type: cell-based, human
Conditions: for number of selected genes restored (summary): 5-aza and/or TSA treatment, of 26 epigenetic targets; for number of selected genes restored in the corresponding inactivated cells: after 5-Aza-dC and/or TSA treatment, gene-specific or cell-specific mode
Experimental: To examine the correspondence between NotI-methylation and gene silencing at the neighboring region of the NotI site, RT-PCR analysis was performed for each selected gene with RNA of gastric cancer cell line. Reverse transcription using 5 μg of DNase-treated RNA was done using Superscript II reverse transcriptase (Invitrogen) in a reaction volume of 20 μL. One μL of the reverse transcription reaction was used for amplification using Platinum Taq DNA polymerase (Invitrogen). Amplification was done as follows: denaturation at 94° C. for 30 s, annealing at a primer specific annealing temperature for 30 s and extension at 72° C. for 45 s. All reactions were performed on a GeneAmp PCR System 9700 (Perkin-Elmer Corp.). Five μL of the PCR product were run on a 0.8% agarose gel and visualized by EtBr staining. GAPDH gene was used as a control for comparison of the amount of reverse transcribed template in each sample.
Three gastric cancer cell lines, SNU001, SNU601, and SNU668, were treated with 5-aza-2′-deoxycytidine (5-Aza-dC; Sigma) as a demethylating agent and 5-Aza-dC and trichostatin A (TSA; Sigma) as a HDAC inhibitor to examine the restoring of selected genes in those cells. Each cell was plated at a density of 1×10^5 cells/100-mm dish and cultures for 24 h, followed by 72 h culture with 1 μM 5-Aza-dC. Other cells were also followed by 24 h culture with 250 nM TSA or 72 h 5-Aza-dC-treated cells for another 24 h. RNA was prepared and RT-PCR analysis was then performed using gene-specific primer set as described above. GAPDH gene was also used as a control.
For the selected 22 genes, reactivation analysis was examined in three gastric cancer cell lines by 5-Aza-dC and/or TSA treatment.

| Structure (SMILES) | number of selected genes restored (summary) | number of selected genes restored in the corresponding inactivated cells | restoration of expression of POPDC3, NACM2, PRKD1 and AMPD3 (three gastric cancer cell lines, 1 μM 5-Aza-dC 72 h, RT-PCR, restored only by 5-Aza-dC) |
| --- | --- | --- | --- |
| Nc1ncn([C@H]2C[C@H](O)[C@@H](CO)O2)c(=O)n1 [5-Aza-dC, 5-aza-2′-deoxycytidine] | 23 of 26 | 22 genes | restored in two or three corresponding inactivated cells |
| CC(/C=C/C(=O)NO)=C\[C@@H](C)C(=O)c1ccc(N(C)C)cc1 [TSA, trichostatin A] | 23 of 26 | 22 genes |  |
